{"source": "ChEMBL document CHEMBL1143028", "about": "“Preparation of cyclic 2',3'-carbamate derivatives of erythromycin macrolide antibiotics” (Bioorg Med Chem, 2007)", "key": {"Staphylococcus aureus": {"system": "Staphylococcus aureus", "assay": "Antibacterial activity against Staphylococcus aureus ATCC 25923 at […]", "type": "functional, organism-based"}, "Escherichia coli": {"system": "Escherichia coli", "assay": "Antibacterial activity against Escherichia coli ATCC 25922 at […]", "type": "functional, organism-based"}}, "note": "Calls of active or inactive are those of the source. No cut-off for these calls is given here.", "data": [{"smiles": "CC[C@H]1OC(=O)[C@H](C)C(=O)[C@H](C)[C@@H](O[C@@H]2O[C@H](C)C[C@H]3[C@H]2OC(=O)N3C)[C@](C)(OC)C[C@@H](C)C(=O)[C@H](C)[C@@H]2OC(=O)O[C@]12C", "values": [{"measurement": "Activity", "setting": "Staphylococcus aureus", "result": "inactive"}, {"measurement": "Activity", "setting": "Escherichia coli", "result": "inactive"}]}, {"smiles": "CC[C@H]1OC(=O)[C@H](C)[C@@H](O)[C@H](C)[C@@H](O[C@@H]2O[C@H](C)C[C@H]3[C@H]2OC(=O)N3C)[C@](C)(OC)C[C@@H](C)C(=O)[C@H](C)[C@@H]2OC(=O)O[C@]12C", "values": [{"measurement": "Activity", "setting": "Staphylococcus aureus", "result": "inactive"}, {"measurement": "Activity", "setting": "Escherichia coli", "result": "inactive"}]}, {"smiles": "C=CCOC(=O)O[C@H]1[C@H](C)O[C@@H](O[C@H]2[C@H](C)[C@@H](O[C@@H]3O[C@H](C)C[C@H]4[C@H]3OC(=O)N4C)[C@](C)(OC)C[C@@H](C)C(=O)[C@H](C)[C@@H]3OC(=O)O[C@]3(C)[C@@H](CC)OC(=O)[C@@H]2C)C[C@@]1(C)OC", "values": [{"measurement": "Activity", "setting": "Staphylococcus aureus", "result": "inactive"}, {"measurement": "Activity", "setting": "Escherichia coli", "result": "inactive"}]}, {"smiles": "C=CCOC(=O)O[C@H]1[C@H](C)[C@@H](O[C@@H]2O[C@H](C)C[C@H]3[C@H]2OC(=O)N3C)[C@](C)(OC)C[C@@H](C)C(=O)[C@H](C)[C@@H]2OC(=O)O[C@]2(C)[C@@H](CC)OC(=O)[C@@H]1C", "values": [{"measurement": "Activity", "setting": "Staphylococcus aureus", "result": "inactive"}, {"measurement": "Activity", "setting": "Escherichia coli", "result": "inactive"}]}, {"smiles": "CC[C@H]1OC(=O)[C@H](C)[C@@H](O[C@H]2C[C@@](C)(OC)[C@@H](O)[C@H](C)O2)[C@H](C)[C@@H](O[C@@H]2O[C@H](C)C[C@H]3[C@H]2OC(=O)N3C)[C@](C)(OC)C[C@@H](C)C(=O)[C@H](C)[C@@H]2OC(=O)O[C@]12C", "values": [{"measurement": "Activity", "setting": "Staphylococcus aureus", "result": "inactive"}, {"measurement": "Activity", "setting": "Escherichia coli", "result": "inactive"}]}, {"smiles": "CC[C@H]1OC(=O)[C@H](C)C(=O)[C@H](C)[C@@H](O[C@@H]2O[C@H](C)C[C@H]3[C@H]2OC(=O)N3C)[C@](C)(OC)C[C@@H](C)C(=O)[C@H](C)[C@@H]2N(c3ccc(N4CCOCC4)c(F)c3)C(=O)O[C@@]21C", "values": [{"measurement": "Activity", "setting": "Staphylococcus aureus", "result": "inactive"}, {"measurement": "Activity", "setting": "Escherichia coli", "result": "inactive"}]}, {"smiles": "CC[C@H]1OC(=O)[C@H](C)[C@@H](O[C@H]2C[C@@](C)(OC)[C@@H](O)[C@H](C)O2)[C@H](C)[C@@H](O[C@@H]2O[C@H](C)C[C@H]3[C@H]2OC(=O)N3C)[C@](C)(OC)C[C@@H](C)C(=O)/C(C)=C/[C@]1(C)O", "values": [{"measurement": "Activity", "setting": "Staphylococcus aureus", "result": "inactive"}, {"measurement": "Activity", "setting": "Escherichia coli", "result": "inactive"}]}]}
